Data on seven compounds can be found in US6610685B2, “Fused indole derivatives” (Hoffmann-La Roche Inc., priority 2000, dated 2003).

The target of one data set is T1, human 5-HT2B receptors (Homo sapiens, UniProt P41595).
T1 construct: expressed in transfected cells; host or cells: CHO cell line
As to the kind of experiment: Binding to the 5-HT2B receptor, Method (b), [3H]-5-HT. The protocol:
(§1) The binding of compounds of formula (I) to serotonin receptors was determined in vitro by standard methods. The preparations were investigated in accordance with the assays given hereinafter.
Method (b): For the binding to the 5-HT2B receptor the 5-HT2B receptors were radiolabeled with [^3H]-5-HT. The affinity of the compounds for human 5-HT2B receptors in a CHO cell line was determined according to the procedure of K. Schmuck, C. Ullmer, P. Engels and H. Lubbert, FEBS Lett., 1994, 342, 85-90.
(§2) The Ki values are calculated according to the method of Cheng, Yung-Chi, and Prusoff, W. H. Biochem. Pharmacol. 1973, 22(23) 3099-108.

The nature of data set [1]: Pharmacodynamic study: food intake up to 16 hours after compound administration. Type of data set: in vivo, rats. The note with it: 30 mg/kg p.o. How it is done:
The in vivo activity of compounds of formula (I) was assayed for ability to regulate feeding behaviour during a time period up to 16 hours after compound administration.
The test compound was assessed following acute administration. Each study utilised a between-subjects design (typically n=8) and compared the effects of a single dose of the test agent to those of vehicle.
Example 1 was administered at a dose of 30 mg/kg p.o. in a distilled water vehicle 2, 4, 8, or 16 hours prior to food presentation. At the time of food presentation (standard laboratory chow) all animals had been subjected to a 23-hour food deprivation period. Water was freely available throughout the study. The amount of food consumed over 1 hour was determined. Food intake data were subjected to two-way analysis of variance (ANOVA) with drug treatment as a between-subjects factor and injection-test-interval as a between subjects factor. Newman-Keuls tests were performed to assess whether differences between the vehicle mean and the drug-treated mean at each level of injection-test-interval were significant. All statistical analyses were performed using Statistica Software, Version 5.0 (Statsoft Inc.) and Microsoft Excel 7.0 (Microsoft Corp.).

Data set [2] concerns the target T2, 5-HT2C receptor (Homo sapiens, UniProt P28335).
T2 sequence (P28335 33-458): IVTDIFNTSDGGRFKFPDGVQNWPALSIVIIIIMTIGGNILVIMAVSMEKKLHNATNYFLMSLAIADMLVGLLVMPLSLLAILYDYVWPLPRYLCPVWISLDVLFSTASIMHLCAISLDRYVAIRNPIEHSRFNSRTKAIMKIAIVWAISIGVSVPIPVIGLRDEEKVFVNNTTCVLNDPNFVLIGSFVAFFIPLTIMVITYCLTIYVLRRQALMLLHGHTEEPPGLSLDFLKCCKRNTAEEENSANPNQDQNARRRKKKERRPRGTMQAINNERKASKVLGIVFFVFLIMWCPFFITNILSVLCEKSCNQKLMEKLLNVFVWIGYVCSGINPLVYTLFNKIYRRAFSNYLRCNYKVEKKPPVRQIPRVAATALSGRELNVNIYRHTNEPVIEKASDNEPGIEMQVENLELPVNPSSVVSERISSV
The data set is described as follows: Functional activity, FLIPR calcium assay, CHO cells expressing human 5-HT2C. The note with it: for h5-HT2c Relative Efficacy: relative to response of 10 μM 5-HT (100%). Type of data set: cell-based. Also noted: expressed in transfected cells; host or cells: CHO cells. How it is done:
(§3) The functional activity of compounds of formula (I) was assayed using a Fluorimetric Imaging Plate reader (FLIPR). CHO cells expressing the human 5-HT2C or human 5-HT2A receptors were counted and plated into standard 96 well microtitre plates on the day before testing to give a confluent monolayer. The cells were then dye loaded with the calcium sensitive dye, Fluo-3-AM. Unincorporated dye was removed using an automated cell washer to leave a total volume of 100 μL/well of assay buffer (Hanks balanced salt solution containing 20 mM Hepes and 2.5 mM probenecid). The drug (dissolved in 50 μL of the assay buffer) was added at a rate of 70 μL/sec to each well of the FLIPR 96 well plate during fluorescence measurements. The measurements were taken at 1 sec intervals and the maximum fluorescent signal was measured (approx 10-15 secs after drug addition) and compared with the response produced by 10 μM 5-HT (defined as 100%) to which it was expressed as a percentage response (relative efficacy). Dose response curves were constructed using Graphpad Prism (Graph Software Inc.).

Data set [3] deals with T3, 5-HT2A receptor (Homo sapiens, UniProt P28223). As to the kind of experiment: Functional activity, FLIPR calcium assay, CHO cells expressing human 5-HT2A. It counts as cell-based. On the set-up: expressed in transfected cells; host or cells: CHO cells. How it is done: as §3
T3 sequence (P28223 whole entry): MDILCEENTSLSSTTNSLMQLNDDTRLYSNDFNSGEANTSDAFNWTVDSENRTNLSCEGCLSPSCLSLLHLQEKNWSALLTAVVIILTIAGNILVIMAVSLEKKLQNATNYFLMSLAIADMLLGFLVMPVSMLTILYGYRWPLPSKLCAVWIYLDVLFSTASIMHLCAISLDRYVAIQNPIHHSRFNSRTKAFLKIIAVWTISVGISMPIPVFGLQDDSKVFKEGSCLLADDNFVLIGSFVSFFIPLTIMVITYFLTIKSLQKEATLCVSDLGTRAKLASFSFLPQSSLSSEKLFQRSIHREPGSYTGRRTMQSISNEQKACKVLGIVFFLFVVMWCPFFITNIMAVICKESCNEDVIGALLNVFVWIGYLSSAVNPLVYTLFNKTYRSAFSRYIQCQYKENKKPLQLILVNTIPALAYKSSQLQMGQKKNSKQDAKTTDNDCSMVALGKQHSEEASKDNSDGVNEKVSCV
The target of data set [4] is T2, 5-HT2C receptor. As to the kind of experiment: Binding to the 5-HT2C receptor, Method (a), [3H]-5-HT. Also noted: expressed in transfected cells; host or cells: CHO cell line. The protocol:
as §1
Method (a): For the binding to the 5-HT2C receptor the 5-HT2C receptors were radiolabeled with [^3H]-5-HT. The affinity of the compounds for 5-HT2C receptors in a CHO cell line was determined according to the procedure of D. Hoyer, G. Engel and H. O. Kalkman, European J. Pharmacol., 1985, 118, 13-23.
as §2

Data set [5] addresses T3, 5-HT2A receptor. As to the kind of experiment: Binding to the 5-HT2A receptor, Method (c), [125I]-DOI. On the set-up: expressed in transfected cells; host or cells: CHO cell line. The protocol:
as §1
Method (c): For the binding to the 5-HT2A receptor the 5-HT2A receptors were radiolabeled with [^125I]-DOI. The affinity of the compounds for 5-HT2A receptors in a CHO cell line was determined according to the procedure of D. J. McKenna and S. J. Peroutka, J. Neurosci., 1989, 9, 3482-90.
as §2

The conditions of data set [6]: literature; cited from earlier work.
For data set [7] the following is noted: literature, cited from earlier work.

Structures are written as SMILES. Where two headings read alike, the source gives them in different places.

T1 sequence (P41595 whole entry): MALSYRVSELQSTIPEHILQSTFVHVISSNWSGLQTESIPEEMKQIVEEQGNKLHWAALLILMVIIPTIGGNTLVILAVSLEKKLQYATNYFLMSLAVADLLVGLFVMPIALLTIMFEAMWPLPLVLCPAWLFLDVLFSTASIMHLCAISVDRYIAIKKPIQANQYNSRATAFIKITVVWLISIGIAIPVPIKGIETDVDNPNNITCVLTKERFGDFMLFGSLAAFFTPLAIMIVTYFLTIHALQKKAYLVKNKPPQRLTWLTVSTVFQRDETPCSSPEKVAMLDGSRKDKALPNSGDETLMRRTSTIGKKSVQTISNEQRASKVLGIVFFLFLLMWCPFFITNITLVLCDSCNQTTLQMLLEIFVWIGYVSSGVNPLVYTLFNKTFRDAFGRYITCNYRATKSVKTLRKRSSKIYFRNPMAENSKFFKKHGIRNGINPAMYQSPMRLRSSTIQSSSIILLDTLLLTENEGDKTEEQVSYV

As a reminder, the melting point is the temperature of the solid-liquid transition. Consider `COCCCCOc1ccc2c(c1)c(C[C@H](C)N)c1n2CCC1.Cl`, for which the melting point was determined as 107 °C.
Regarding `CCOCCOc1ccc2c(c1)c(C[C@H](C)N)c1n2CCC1.Cl`, the melting point was in the range of 170 to 172 °C.
Still for that read-out and setting: then `CCOCCCOc1ccc2c(c1)c(C[C@H](C)N)c1n2CCC1.Cl`, with 132 °C.
As usually defined, the Ki is the dissociation constant of the complex between target and ligand, obtained from inhibition or displacement. In the case of `CCOc1ccc2c(c1)c(C[C@H](C)N)c1n2CCC1` [Example 1, (S)-2-(6-ethoxy-2,3-dihydro-1H-3a-aza-cyclopenta[a]inden-8-yl)-1-methyl-ethylamine], the inhibition constant Ki on human 5-HT2B receptors was 830 nM; at 5-HT2C receptor [4] (Method (a), [3H]-5-HT, CHO cell line, Ki by Cheng-Prusoff, read-out: Ki (2C)), 11 nM; on 5-HT2A receptor [5], 410 nM. Also, in [1], the “duration of action in reducing rat food intake” value is on record as “at least 16 hours”. Besides, the “h5-HT2c Relative Efficacy” value on 5-HT2C receptor [2] worked out at 87%. Further, the “h5-HT2A Relative Efficacy” value at 5-HT2A receptor [3] (relative to response of 10 μM 5-HT (100%)) stood at 33%.
Turning to `COCCOc1ccc2c(c1)c(C[C@H](C)N)c1n2CCC1` [Example 2, (S)-2-[6-(2-methoxy-ethoxy)-2,3-dihydro-1H-3a-aza-cyclopenta[a]inden-8-yl]-1-methyl-ethyl amine], the Ki on human 5-HT2B receptors (Method (b), [3H]-5-HT, human 5-HT2B in CHO cell line, Ki by Cheng-Prusoff, read-out: Ki (2B)) stood at 480 nM; at 5-HT2C receptor [4], 19 nM; at 5-HT2A receptor [5] (Method (c), [125I]-DOI, CHO cell line, Ki by Cheng-Prusoff, read-out: Ki (2A)), 520 nM.
As a reminder, the EC50 is the midpoint of the concentration-response curve. Turning to `C[C@H](N)Cc1c2n(c3ccc(OC4CC4)cc13)CCC2` [Example 3, (S)-2-(6-cyclopropoxy-2,3-dihydro-1H-3a-aza-cyclopenta[a]inden-8-yl)-1-methyl-ethylamine], the EC50 on 5-HT2C receptor [2] (FLIPR, CHO cells, read-out: h5-HT2c EC50) is 3 nM; on 5-HT2A receptor [3] (FLIPR, CHO cells, read-out: h5-HT2A EC50), greater than 1000 nM. In addition, the “h5-HT2c Relative Efficacy” value at 5-HT2C receptor [2] was found to be 84%.
For `Clc1cccc(N2CCNCC2)c1` [mCPP, m-chlorophenylpiperazine], in [6], the behavioural satiety sequence result is recorded as “accelerate the appearance of the behavioural satiety sequence” and the “food intake in rats” value is reported as “reduce food intake”. For the same compound, the “food intake in female volunteers” value in data set [7] (single dose) is “decreased food intake”. Also, in data set [7] (subchronic treatment for a 14 day period), the “appetite and body weight of obese male and female subjects” value is “decreased the appetite and body weight”.
